Experimental data: US20250066445A1, “OBESITY TREATMENT AND PREVENTION METHODS” (VAULT BIOSCIENCES, INC., priority 2022, published 2025)

Experiments:
Assay type in all cases: in vivo, human
[1] = Example 13 clinical study combining dulaglutide and fasting; conditions: One-Meal-A-Day, dose weeks 1-4: 0.2/0.375/0.375/0.6 mg
Source text: Example 13—Clinical Study of Combining Dulaglutide and Fasting Patients are subject to a combination HMT/HNT treatment protocol as described in Table 17 below. […] [table]

[2] = Example 14 clinical study combining dulaglutide and fasting; conditions: 15-hour fasting, dose weeks 1-4: 0.2/0.375/0.375/0.6 mg
Source text: Example 14—Clinical Study of Combining Dulaglutide and Fasting Patients are subject to a combination HMT/HNT treatment protocol as described in Table 18 below. […] [table]

[3] = Example 15 clinical study combining dulaglutide and fasting; conditions: 18-hour fasting, dose weeks 1-4: 0.2/0.375/0.375/0.6 mg
Source text: Example 15—Clinical Study of Combining Dulaglutide and Fasting Patients are subject to a combination HMT/HNT treatment protocol as described in Table 19 below. […] [table]

[4] = Example 1 clinical study combining semaglutide (injection) and fasting, Patient 1; conditions: One-Meal-A-Day
Source text: Example 1—Clinical Study of Combining Semaglutide (Injection) and Fasting
Patient 1 was subject to a combination HMT/HNT treatment protocol as described below.

[5] = Example 2 clinical study combining semaglutide (injection) and fasting; conditions: 15-hour fasting, dose weeks 1-4: .25/.50/.50/1 mg
Source text: Example 2—Clinical Study of Combining Semaglutide (injection) and Fasting Patients are subject to a combination HMT/HNT treatment protocol as described in Table 6 below. […] [table]

[6] = no exercise, no calorie counting
[7] = starting weight 282 lbs, 30 days, dose weeks 1-4: .25/.50/.50/1 mg, no exercise, no calorie counting

Substance | Hunger [1] | Therapeutic effects (e.g. weight loss) [1, 6] | Hunger [2] | Therapeutic effects (e.g. weight loss) [2, 6] | Hunger [3] | Therapeutic effects (e.g. weight loss) [3, 6] | Hunger ([4]; 30 days, dose weeks 1-4: .25/.50/.50/1 mg) | Hunger ([4]; 30 days, dose weeks 1-4: .25/.50/.50/1 mg, listed as Semaglutide (Injection)) | Weight lost ([4]; in 30 days, no exercise, no caloric restrictions) | % Bodyweight Reduction ([4]; starting weight 282 lbs, 30 days, dose weeks 1-4: .25/.50/.50/1 mg) | % Bodyweight Reduction ([4]; starting weight 282 lbs, 30 days, dose weeks 1-4: .25/.50/.50/1 mg, listed as Semaglutide (Injection)) | Bodyweight reduction [4, 7] | Ending Weight [4, 7] | Hunger [5] | Therapeutic effects (e.g. weight loss) [5, 6]
Dulaglutide | no discernable or unusual hunger | Desirable therapeutics effects (e.g. weigh loss) are achieved | no discernable or unusual hunger | Desirable therapeutics effects (e.g. weigh loss) are achieved | no discernable or unusual hunger | Desirable therapeutics effects (e.g. weigh loss) are achieved | – | – | – | – | – | – | – | – | –
Semaglutide | – | – | – | – | – | – | No discernable/unusual hunger | no discernable or unusual hunger | 30 pounds | −9.6% | approximately 9.6% | −30 lbs | 252 lbs | no discernable or unusual hunger | Desirable therapeutics effects (e.g. weigh loss) are achieved
